# Values quoted from earlier work, collected in patent publication US12521484B2, “Irrigation system and methods of use” (Osteal Therapeutics, Inc., priority 2023, dated 2026).
# Experiments:
# [1] = system: multiple common PJI organisms
# [2] = instillation of 50,000-100,000 μg/mL once or twice daily into the joint space; multiple patients
structure (smiles),measurement,setting,value
CN[C@H](CC(C)C)C(=O)N[C@H]1C(=O)N[C@@H](CC(N)=O)C(=O)N[C@H]2C(=O)N[C@H]3C(=O)N[C@H](C(=O)N[C@H](C(=O)O)c4cc(O)cc(O)c4-c4cc3ccc4O)[C@H](O)c3ccc(c(Cl)c3)Oc3cc2cc(c3O[C@@H]2O[C@H](CO)[C@@H](O)[C@H](O)[C@H]2O[C@H]2C[C@](C)(N)[C@H](O)[C@H](C)O2)Oc2ccc(cc2Cl)[C@H]1O [vancomycin],minimum biofilm eradication concentration (MBEC),[1],"greater than 4,000 μg/mL"
same,serum concentrations,[2],exceeding safe limits
